ChEMBL document CHEMBL5465560, “Selectivity Literature for EUbOPEN Chemogenomic Library” (2024)

Tests used:
[1] = biological target: Dual specificity protein kinase CLK3 (Homo sapiens, UniProt P49761); test: Selectivity interaction (KinomeScan (DiscoverX)) EUB0000229b CLK3; details: at 10 µM
[2] = biological target: Serine/threonine-protein kinase NIM1 (Homo sapiens, UniProt Q8IY84); test: Selectivity interaction (KinomeScan (DiscoverX)) EUB0000655a NIM1K; details: at 10 µM
[3] = biological target: Casein kinase I isoform alpha (Homo sapiens, UniProt P48729); test: Selectivity interaction (KinomeScan (DiscoverX)) EUB0000655a CSNK1A1; details: at 10 µM
Chain of Casein kinase I isoform alpha (P48729 2-337 limits assumed): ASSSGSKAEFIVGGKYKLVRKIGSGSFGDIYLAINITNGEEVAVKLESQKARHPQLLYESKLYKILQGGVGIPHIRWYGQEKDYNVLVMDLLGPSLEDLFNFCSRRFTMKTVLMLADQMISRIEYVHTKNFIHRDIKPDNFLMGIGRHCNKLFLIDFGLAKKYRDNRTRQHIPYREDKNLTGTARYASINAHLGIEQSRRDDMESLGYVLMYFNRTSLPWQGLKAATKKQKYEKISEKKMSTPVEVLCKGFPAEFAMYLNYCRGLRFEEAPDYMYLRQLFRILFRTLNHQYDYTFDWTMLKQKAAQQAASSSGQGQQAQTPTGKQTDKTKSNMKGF

[4] = biological target: Serine/threonine-protein kinase WNK1 (Homo sapiens) (UniProt Q9H4A3); test: Selectivity interaction (Kinase panel (KiNativ target engagement assay in Jurkat cells)) EUB0001635a WNK1; assay type: cell-based; details: at 1 µM
[5] = biological target: Receptor tyrosine-protein kinase erbB-2 (Homo sapiens, UniProt P04626); test: Selectivity interaction (Rxn Biology Kinase assay) EUB0001632a ERBB2; details: at 10 µM
Chain of Receptor tyrosine-protein kinase erbB-2 (P04626 whole entry, the tested form may be a part): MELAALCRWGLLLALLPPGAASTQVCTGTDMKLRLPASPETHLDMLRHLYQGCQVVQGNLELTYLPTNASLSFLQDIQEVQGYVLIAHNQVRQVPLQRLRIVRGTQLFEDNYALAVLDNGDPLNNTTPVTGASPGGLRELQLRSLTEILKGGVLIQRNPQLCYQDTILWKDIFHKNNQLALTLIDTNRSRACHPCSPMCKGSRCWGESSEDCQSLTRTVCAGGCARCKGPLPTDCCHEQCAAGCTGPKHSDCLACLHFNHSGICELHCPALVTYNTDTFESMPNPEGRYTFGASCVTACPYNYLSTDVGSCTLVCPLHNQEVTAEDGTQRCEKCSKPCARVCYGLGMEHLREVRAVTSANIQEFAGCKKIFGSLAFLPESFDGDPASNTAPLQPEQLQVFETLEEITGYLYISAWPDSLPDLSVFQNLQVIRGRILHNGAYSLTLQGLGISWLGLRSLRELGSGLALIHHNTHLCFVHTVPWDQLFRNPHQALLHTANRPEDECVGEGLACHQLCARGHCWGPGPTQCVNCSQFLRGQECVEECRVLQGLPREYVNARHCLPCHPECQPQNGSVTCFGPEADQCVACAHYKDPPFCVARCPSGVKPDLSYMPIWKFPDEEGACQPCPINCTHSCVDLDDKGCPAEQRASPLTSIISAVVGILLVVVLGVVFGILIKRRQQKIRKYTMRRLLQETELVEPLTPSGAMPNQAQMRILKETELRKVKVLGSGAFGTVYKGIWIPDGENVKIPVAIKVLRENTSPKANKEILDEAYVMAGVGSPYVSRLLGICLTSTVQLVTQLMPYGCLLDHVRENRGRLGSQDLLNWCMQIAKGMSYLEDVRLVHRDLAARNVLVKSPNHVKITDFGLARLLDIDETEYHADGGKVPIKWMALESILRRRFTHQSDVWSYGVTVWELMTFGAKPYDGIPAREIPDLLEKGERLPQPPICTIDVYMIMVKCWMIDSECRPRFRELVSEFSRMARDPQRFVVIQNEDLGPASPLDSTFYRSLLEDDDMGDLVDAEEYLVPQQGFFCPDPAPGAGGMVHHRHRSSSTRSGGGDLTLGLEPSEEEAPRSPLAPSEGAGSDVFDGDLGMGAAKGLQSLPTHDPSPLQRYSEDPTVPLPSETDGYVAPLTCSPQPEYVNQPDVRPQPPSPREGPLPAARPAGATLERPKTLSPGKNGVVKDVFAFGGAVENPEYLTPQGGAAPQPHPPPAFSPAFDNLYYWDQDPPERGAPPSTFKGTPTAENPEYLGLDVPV

[6] = Selectivity interaction (PWWP, WD40, and Tudor domain panel (DSLS measurements, literature)) EUB0000270b SCML2
[7] = biological target: Tyrosine-protein kinase Lyn (Homo sapiens, UniProt P07948); test: Selectivity interaction (ActivX KiNativ screen (kinase selectivity in THP-1 cell lysates)) EUB0000639a LYN; assay type: subcellular; details: lysate, at 0.2 µM
Chain of Tyrosine-protein kinase Lyn (P07948 2-512 limits assumed): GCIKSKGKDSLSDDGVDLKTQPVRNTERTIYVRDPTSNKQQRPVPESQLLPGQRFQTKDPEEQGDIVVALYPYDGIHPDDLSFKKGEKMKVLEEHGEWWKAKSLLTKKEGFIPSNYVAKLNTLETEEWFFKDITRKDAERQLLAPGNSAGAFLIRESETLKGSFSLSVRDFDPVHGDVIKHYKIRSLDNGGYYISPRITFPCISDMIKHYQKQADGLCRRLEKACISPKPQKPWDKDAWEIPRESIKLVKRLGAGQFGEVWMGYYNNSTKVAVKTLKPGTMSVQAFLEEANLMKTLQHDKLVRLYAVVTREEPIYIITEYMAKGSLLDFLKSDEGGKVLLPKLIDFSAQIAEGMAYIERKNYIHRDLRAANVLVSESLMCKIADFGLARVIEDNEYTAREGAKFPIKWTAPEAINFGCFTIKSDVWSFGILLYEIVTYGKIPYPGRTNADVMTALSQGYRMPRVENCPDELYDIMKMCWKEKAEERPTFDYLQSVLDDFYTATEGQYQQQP

[8] = biological target: T1, Ephrin type-B receptor 2 (Homo sapiens) (UniProt P29323); test: Selectivity interaction (Kinase panel (Invitrogen)) EUB0000639a EPHB2; details: at 200 nM
T1 sequence (whole entry): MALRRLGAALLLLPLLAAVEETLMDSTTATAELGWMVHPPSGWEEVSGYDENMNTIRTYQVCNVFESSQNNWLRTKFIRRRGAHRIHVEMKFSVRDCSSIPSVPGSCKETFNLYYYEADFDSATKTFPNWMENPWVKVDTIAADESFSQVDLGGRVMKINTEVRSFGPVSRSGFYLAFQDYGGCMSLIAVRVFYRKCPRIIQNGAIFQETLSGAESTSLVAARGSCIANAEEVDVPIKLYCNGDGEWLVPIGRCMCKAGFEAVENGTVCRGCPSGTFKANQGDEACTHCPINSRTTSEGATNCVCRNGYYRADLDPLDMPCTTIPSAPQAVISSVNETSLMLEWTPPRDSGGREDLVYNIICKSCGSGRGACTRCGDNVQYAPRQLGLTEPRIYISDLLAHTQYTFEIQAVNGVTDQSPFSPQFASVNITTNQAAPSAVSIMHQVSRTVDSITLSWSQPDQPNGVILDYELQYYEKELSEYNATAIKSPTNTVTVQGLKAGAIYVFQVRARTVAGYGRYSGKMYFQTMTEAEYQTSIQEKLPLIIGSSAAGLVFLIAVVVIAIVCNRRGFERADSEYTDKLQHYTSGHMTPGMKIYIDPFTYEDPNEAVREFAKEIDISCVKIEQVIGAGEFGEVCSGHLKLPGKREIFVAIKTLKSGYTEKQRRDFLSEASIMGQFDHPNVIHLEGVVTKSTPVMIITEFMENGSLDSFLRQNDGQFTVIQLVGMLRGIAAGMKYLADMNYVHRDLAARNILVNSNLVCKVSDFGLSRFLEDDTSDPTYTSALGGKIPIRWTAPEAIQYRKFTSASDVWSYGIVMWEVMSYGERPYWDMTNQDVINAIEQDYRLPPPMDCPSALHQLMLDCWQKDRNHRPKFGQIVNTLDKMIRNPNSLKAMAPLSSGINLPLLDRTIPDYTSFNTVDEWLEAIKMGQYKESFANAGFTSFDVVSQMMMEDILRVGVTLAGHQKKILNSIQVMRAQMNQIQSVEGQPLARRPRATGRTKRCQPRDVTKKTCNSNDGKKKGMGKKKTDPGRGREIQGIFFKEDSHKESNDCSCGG

[9] = biological target: Interleukin-1 receptor-associated kinase 1 (Homo sapiens) (UniProt P51617); test: Selectivity interaction (ActivX KiNativ screen (kinase selectivity in THP-1 cell lysates)) EUB0000639a IRAK1; assay type: subcellular; details: lysate
Chain of Interleukin-1 receptor-associated kinase 1 (Homo sapiens) (P51617 whole entry, looked up): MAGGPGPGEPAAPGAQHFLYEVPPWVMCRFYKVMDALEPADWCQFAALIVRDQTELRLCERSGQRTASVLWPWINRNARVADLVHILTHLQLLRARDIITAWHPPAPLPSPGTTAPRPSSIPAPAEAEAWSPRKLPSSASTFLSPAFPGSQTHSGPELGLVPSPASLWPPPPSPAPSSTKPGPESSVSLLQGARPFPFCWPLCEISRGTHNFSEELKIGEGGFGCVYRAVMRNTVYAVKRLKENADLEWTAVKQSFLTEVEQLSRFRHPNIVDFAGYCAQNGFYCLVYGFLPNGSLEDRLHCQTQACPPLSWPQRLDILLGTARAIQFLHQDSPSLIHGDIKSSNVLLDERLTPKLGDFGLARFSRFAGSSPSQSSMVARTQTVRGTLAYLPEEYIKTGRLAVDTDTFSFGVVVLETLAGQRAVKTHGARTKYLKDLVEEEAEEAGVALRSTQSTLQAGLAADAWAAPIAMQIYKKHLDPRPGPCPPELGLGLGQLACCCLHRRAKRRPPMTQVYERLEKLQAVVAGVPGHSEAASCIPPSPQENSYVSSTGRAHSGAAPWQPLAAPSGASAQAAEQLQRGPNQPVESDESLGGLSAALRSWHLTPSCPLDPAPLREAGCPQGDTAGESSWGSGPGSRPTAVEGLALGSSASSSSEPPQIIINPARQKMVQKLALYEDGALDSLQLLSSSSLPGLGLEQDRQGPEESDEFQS

[10] = biological target: Mitogen-activated protein kinase 9 (Homo sapiens, UniProt P45984); test: Selectivity interaction (ActivX KiNativ screen (kinase selectivity in THP-1 cell lysates)) EUB0000639a MAPK9; assay type: subcellular; details: lysate, at 0.01 µM
Chain of Mitogen-activated protein kinase 9 (P45984 whole entry, looked up): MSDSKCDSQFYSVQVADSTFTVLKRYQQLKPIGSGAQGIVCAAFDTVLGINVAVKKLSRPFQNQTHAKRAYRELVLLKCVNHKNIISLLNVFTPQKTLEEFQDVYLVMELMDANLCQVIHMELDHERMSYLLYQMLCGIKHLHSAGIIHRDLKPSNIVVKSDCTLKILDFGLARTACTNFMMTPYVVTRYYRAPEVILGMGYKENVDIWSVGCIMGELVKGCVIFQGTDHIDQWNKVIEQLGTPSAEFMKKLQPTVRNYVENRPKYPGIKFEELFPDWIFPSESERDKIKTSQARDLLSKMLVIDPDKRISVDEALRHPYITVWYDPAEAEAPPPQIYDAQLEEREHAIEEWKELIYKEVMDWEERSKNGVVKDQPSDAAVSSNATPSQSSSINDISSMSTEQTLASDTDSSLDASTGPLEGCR

[11] = biological target: T2, MAP kinase-activated protein kinase 5 (Homo sapiens) (UniProt Q8IW41); test: Selectivity interaction (KinomeScan (DiscoverX)) EUB0001049a MAPKAPK5; details: at 1 µM
T2 sequence (whole entry): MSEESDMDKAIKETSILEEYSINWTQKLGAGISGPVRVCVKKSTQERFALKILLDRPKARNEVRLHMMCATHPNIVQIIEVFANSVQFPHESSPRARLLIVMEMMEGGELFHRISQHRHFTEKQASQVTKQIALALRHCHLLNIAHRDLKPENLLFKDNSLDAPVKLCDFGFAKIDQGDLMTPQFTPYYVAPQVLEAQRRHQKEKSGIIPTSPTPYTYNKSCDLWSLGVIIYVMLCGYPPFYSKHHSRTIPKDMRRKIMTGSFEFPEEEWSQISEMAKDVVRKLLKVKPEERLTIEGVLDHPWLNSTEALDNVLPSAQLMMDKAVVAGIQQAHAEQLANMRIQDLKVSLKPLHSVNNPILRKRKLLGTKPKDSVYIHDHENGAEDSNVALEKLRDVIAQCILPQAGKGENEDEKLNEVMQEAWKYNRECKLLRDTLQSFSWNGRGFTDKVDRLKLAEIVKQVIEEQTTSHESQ

Ephrin type-A receptor 4 = Ephrin type-A receptor 4 (Homo sapiens, UniProt P54764); test: Selectivity interaction (KinomeScan (DiscoverX)) EUB0000618a EPHA4; details: at 10 µM
Chain of Ephrin type-A receptor 4 (P54764 whole entry): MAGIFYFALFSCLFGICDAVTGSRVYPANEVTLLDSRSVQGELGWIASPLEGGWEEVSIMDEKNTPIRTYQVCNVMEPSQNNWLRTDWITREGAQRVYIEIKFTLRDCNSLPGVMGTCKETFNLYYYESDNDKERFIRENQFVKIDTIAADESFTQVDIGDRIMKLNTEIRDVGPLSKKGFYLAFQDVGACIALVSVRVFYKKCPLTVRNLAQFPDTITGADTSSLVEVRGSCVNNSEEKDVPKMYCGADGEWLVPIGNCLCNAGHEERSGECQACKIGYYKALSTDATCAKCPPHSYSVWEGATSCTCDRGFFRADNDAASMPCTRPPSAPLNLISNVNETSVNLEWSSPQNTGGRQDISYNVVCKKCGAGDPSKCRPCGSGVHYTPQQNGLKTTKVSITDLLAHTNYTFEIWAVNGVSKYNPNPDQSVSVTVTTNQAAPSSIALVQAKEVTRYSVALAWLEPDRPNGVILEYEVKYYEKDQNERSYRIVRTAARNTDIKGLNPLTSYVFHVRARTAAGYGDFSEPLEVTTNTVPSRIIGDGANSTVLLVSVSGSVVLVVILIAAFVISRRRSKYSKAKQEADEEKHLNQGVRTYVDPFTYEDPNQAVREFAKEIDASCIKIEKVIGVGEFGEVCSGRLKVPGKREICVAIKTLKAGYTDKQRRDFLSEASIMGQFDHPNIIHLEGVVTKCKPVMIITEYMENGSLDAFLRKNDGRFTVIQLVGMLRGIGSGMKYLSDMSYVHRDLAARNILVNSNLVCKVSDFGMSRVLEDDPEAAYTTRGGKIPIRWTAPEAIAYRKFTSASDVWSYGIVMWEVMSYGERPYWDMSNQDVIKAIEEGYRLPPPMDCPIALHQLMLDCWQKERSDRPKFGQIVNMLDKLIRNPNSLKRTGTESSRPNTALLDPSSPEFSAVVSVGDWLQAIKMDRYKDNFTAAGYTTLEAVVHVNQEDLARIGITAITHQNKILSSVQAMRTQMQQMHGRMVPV

[12] = biological target: Vascular endothelial growth factor receptor 1 (Homo sapiens) (UniProt P17948); test: Selectivity interaction (Kinase screening (Nanosyn)) EUB0000604a FLT1
Activated CDC42 kinase 1 = Activated CDC42 kinase 1 (Homo sapiens, UniProt Q07912); test: Selectivity interaction (KinomeScan (DiscoverX)) EUB0001619a TNK2; details: at 1 µM

Chain of Dual specificity protein kinase CLK3 (P49761 whole entry, looked up): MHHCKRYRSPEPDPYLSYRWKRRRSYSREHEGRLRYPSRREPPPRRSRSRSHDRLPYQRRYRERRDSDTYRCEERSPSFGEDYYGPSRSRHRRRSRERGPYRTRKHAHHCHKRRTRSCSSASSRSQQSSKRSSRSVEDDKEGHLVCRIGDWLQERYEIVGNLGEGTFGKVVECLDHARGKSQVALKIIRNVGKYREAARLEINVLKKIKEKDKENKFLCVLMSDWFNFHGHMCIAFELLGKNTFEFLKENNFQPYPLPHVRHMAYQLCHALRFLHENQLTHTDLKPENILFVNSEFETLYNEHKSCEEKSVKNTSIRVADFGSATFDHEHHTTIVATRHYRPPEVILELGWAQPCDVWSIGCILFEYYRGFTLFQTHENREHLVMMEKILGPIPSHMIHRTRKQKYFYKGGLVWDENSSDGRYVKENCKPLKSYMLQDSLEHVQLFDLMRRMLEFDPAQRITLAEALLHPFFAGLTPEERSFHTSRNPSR

COc1cc(N(C)c2ccnc3ccc(C(F)(F)F)cc23)cc(OC)c1OC
% binding [1]: 59%

CN(C)CCOc1ccc(-c2nc(-c3ccncc3)c(-c3ccc4c(c3)CC/C4=N\O)[nH]2)cc1
% of control [2]: 91%
% of control [3]: 38%

C=CC(=O)Nc1ccc(C(=O)Nc2[nH]nc3c2CN(C(=O)N[C@H](CN(C)C)c2ccccc2)C3(C)C)cc1
% of engagement [4]: -16.1%

Cn1cc(-n2cnc3c(NCc4nc5cc(Cl)c(Cl)cc5[nH]4)nc(N4CCOCC4)nc32)cn1
% of inhibition [5]: 2.6%

Cc1cc(CN)cc(C)c1-c1ncn(C)c1-c1cncn1C
dTagg [6]: 0.2 K

CC[C@@H]1[C@H](F)C(=O)N[C@@H]1COc1nccc2cc(C(N)=O)c(OC)cc12 [ZIMLOVISERTIB]
% of inhibition [7]: 0%
% of inhibition [8]: 0.413%
% of inhibition ([9]; at 0.01 µM): 2.3%
% of inhibition ([9]; at 0.04 µM): 8.5%
% of inhibition ([9]; at 0.2 µM): 2.2%
% of inhibition ([9]; at 1 µM): 19.8%
% of inhibition ([9]; at 5 µM): 60.7%
% of inhibition [10]: -10%

COc1cc(Nc2nc(C)cc(-c3cnn4nc(OC)ccc34)n2)cc(C(F)(F)F)c1
% of control [11]: 82%

O[C@H]1CC[C@H](Nc2ncc3nc(Nc4c(F)cc(F)cc4F)n([C@H]4CCOC4)c3n2)CC1
% of control (Ephrin type-A receptor 4): 93%

Cc1cnc(Nc2ccc(F)cc2Cl)nc1-c1c[nH]c(C(=O)N[C@H](CO)c2cccc(Cl)c2)c1
% of inhibition [12]: 0%

N#Cc1cccc(-c2c[nH]c3ncnc(N4CCOCC4)c23)c1
% of control (Activated CDC42 kinase 1): 98%
